PubChem BioAssay (NCI)
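Method: 48-hour compound exposure of cells in 96-well plates, five concentrations, linear interpolation of endpoints. Definition used: TGI = concentration required for complete inhibition of growth.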

system: HOP-92 NSCLC; assay: growth of human tumour cells (NCI), 48 h

Q: How did the TGI turn out when `C[C@]12CC[C@H](OC3CCCCO3)CC1=CC[C@@H]1C2CC[C@]2(C)/C(=N/OCCC#N)CCC12` (some centres not stated) was run?
A: 57.6 µM

Q: `CC(C)OC(=O)c1cc(NC(=O)C(C)(C)C)c(F)cc1Cl` was tested. Which TGI did it give?
A: > 100 µM

Q: Which TGI does the source give for `COCOCCCCCO[Si](C)(C)C(C)(C)C` here?
A: 36.9 µM

Q: For `COC(=O)C1=C(C(=O)OC)C2(C3C(SC)=CC(C)(C)CC3S1)N(Cc1ccccc1)CCN2Cc1ccccc1` (configuration not stated), which TGI is on record?
A: 16.1 µM

system: CAKI-1 renal; assay: growth of human tumour cells (NCI), 48 h

Q: For `C[C@]12CC[C@H](OC3CCCCO3)CC1=CC[C@@H]1C2CC[C@]2(C)/C(=N/OCCC#N)CCC12` (some centres not stated), which TGI is on record?
A: > 100 µM

Q: For `NC(N)=NNC(=O)CCn1[nH]c(=O)c(Cl)c(Cl)c1=O`, which TGI is on record?
A: > 100 µM

Q: Which TGI does the source give for `CC(C)OC(=O)c1cc(NC(=O)C(C)(C)C)c(F)cc1Cl` here?
A: > 100 µM

Q: For `COC(=O)C1=C(C(=O)OC)C2(C3C(SC)=CC(C)(C)CC3S1)N(Cc1ccccc1)CCN2Cc1ccccc1` (configuration not stated), which TGI is on record?
A: > 100 µM

system: LXFL 529 NSCLC; assay: growth of human tumour cells (NCI), 48 h

Q: How did the TGI turn out when `C[C@]12CC[C@H](OC3CCCCO3)CC1=CC[C@@H]1C2CC[C@]2(C)/C(=N/OCCC#N)CCC12` (some centres not stated) was run?
A: > 100 µM

Q: `NC(N)=NNC(=O)CCn1[nH]c(=O)c(Cl)c(Cl)c1=O` was tested. Which TGI did it give?
A: > 100 µM

Q: Which TGI does the source give for `CC(C)OC(=O)c1cc(NC(=O)C(C)(C)C)c(F)cc1Cl` here?
A: > 100 µM

Q: How did the TGI turn out when `COCOCCCCCO[Si](C)(C)C(C)(C)C` was run?
A: > 100 µM

Q: `COC(=O)C1=C(C(=O)OC)C2(C3C(SC)=CC(C)(C)CC3S1)N(Cc1ccccc1)CCN2Cc1ccccc1` (configuration not stated) was tested. Which TGI did it give?
A: > 100 µM

system: KM20L2 colon; assay: growth of human tumour cells (NCI), 48 h

Q: For `C[C@]12CC[C@H](OC3CCCCO3)CC1=CC[C@@H]1C2CC[C@]2(C)/C(=N/OCCC#N)CCC12` (some centres not stated), which TGI is on record?
A: > 100 µM

Q: Which TGI does the source give for `NC(N)=NNC(=O)CCn1[nH]c(=O)c(Cl)c(Cl)c1=O` here?
A: > 100 µM

Q: `CC(C)OC(=O)c1cc(NC(=O)C(C)(C)C)c(F)cc1Cl` was tested. Which TGI did it give?
A: > 100 µM

Q: For `COCOCCCCCO[Si](C)(C)C(C)(C)C`, which TGI is on record?
A: 75.8 µM

Q: For `COC(=O)C1=C(C(=O)OC)C2(C3C(SC)=CC(C)(C)CC3S1)N(Cc1ccccc1)CCN2Cc1ccccc1` (configuration not stated), which TGI is on record?
A: > 100 µM

system: UACC-62 melanoma; assay: growth of human tumour cells (NCI), 48 h

Q: Which TGI does the source give for `C[C@]12CC[C@H](OC3CCCCO3)CC1=CC[C@@H]1C2CC[C@]2(C)/C(=N/OCCC#N)CCC12` (some centres not stated) here?
A: > 100 µM

Q: For `NC(N)=NNC(=O)CCn1[nH]c(=O)c(Cl)c(Cl)c1=O`, which TGI is on record?
A: > 100 µM

Q: Which TGI does the source give for `CC(C)OC(=O)c1cc(NC(=O)C(C)(C)C)c(F)cc1Cl` here?
A: > 100 µM

Q: `COCOCCCCCO[Si](C)(C)C(C)(C)C` was tested. Which TGI did it give?
A: 64.6 µM

Q: With `COC(=O)C1=C(C(=O)OC)C2(C3C(SC)=CC(C)(C)CC3S1)N(Cc1ccccc1)CCN2Cc1ccccc1` (configuration not stated) as the compound, how does the TGI read?
A: > 100 µM

system: SK-OV-3 ovarian; assay: growth of human tumour cells (NCI), 48 h

Q: How did the TGI turn out when `C[C@]12CC[C@H](OC3CCCCO3)CC1=CC[C@@H]1C2CC[C@]2(C)/C(=N/OCCC#N)CCC12` (some centres not stated) was run?
A: > 100 µM

Q: How did the TGI turn out when `NC(N)=NNC(=O)CCn1[nH]c(=O)c(Cl)c(Cl)c1=O` was run?
A: > 100 µM

Q: For `CC(C)OC(=O)c1cc(NC(=O)C(C)(C)C)c(F)cc1Cl`, which TGI is on record?
A: > 100 µM

Q: Which TGI does the source give for `COCOCCCCCO[Si](C)(C)C(C)(C)C` here?
A: > 100 µM

Q: With `COC(=O)C1=C(C(=O)OC)C2(C3C(SC)=CC(C)(C)CC3S1)N(Cc1ccccc1)CCN2Cc1ccccc1` (configuration not stated) as the compound, how does the TGI read?
A: > 100 µM

system: NCI-H23 lung; assay: growth of human tumour cells (NCI), 48 h

Q: Which TGI does the source give for `C[C@]12CC[C@H](OC3CCCCO3)CC1=CC[C@@H]1C2CC[C@]2(C)/C(=N/OCCC#N)CCC12` (some centres not stated) here?
A: 95.1 µM

Q: With `NC(N)=NNC(=O)CCn1[nH]c(=O)c(Cl)c(Cl)c1=O` as the compound, how does the TGI read?
A: > 100 µM

Q: How did the TGI turn out when `CC(C)OC(=O)c1cc(NC(=O)C(C)(C)C)c(F)cc1Cl` was run?
A: > 100 µM

Q: `COCOCCCCCO[Si](C)(C)C(C)(C)C` was tested. Which TGI did it give?
A: 42.7 µM

Q: For `COC(=O)C1=C(C(=O)OC)C2(C3C(SC)=CC(C)(C)CC3S1)N(Cc1ccccc1)CCN2Cc1ccccc1` (configuration not stated), which TGI is on record?
A: > 100 µM

system: K-562 leukemia; assay: growth of human tumour cells (NCI), 48 h

Q: `C[C@]12CC[C@H](OC3CCCCO3)CC1=CC[C@@H]1C2CC[C@]2(C)/C(=N/OCCC#N)CCC12` (some centres not stated) was tested. Which TGI did it give?
A: > 100 µM

Q: How did the TGI turn out when `NC(N)=NNC(=O)CCn1[nH]c(=O)c(Cl)c(Cl)c1=O` was run?
A: > 100 µM

Q: Which TGI does the source give for `CC(C)OC(=O)c1cc(NC(=O)C(C)(C)C)c(F)cc1Cl` here?
A: > 100 µM

Q: For `COCOCCCCCO[Si](C)(C)C(C)(C)C`, which TGI is on record?
A: 54.9 µM

Q: How did the TGI turn out when `COC(=O)C1=C(C(=O)OC)C2(C3C(SC)=CC(C)(C)CC3S1)N(Cc1ccccc1)CCN2Cc1ccccc1` (configuration not stated) was run?
A: > 100 µM

system: TK-10 renal; assay: growth of human tumour cells (NCI), 48 h

Q: `C[C@]12CC[C@H](OC3CCCCO3)CC1=CC[C@@H]1C2CC[C@]2(C)/C(=N/OCCC#N)CCC12` (some centres not stated) was tested. Which TGI did it give?
A: 72.9 µM

Q: How did the TGI turn out when `NC(N)=NNC(=O)CCn1[nH]c(=O)c(Cl)c(Cl)c1=O` was run?
A: > 100 µM

Q: Which TGI does the source give for `CC(C)OC(=O)c1cc(NC(=O)C(C)(C)C)c(F)cc1Cl` here?
A: > 100 µM

Q: With `COCOCCCCCO[Si](C)(C)C(C)(C)C` as the compound, how does the TGI read?
A: 97.6 µM

Q: How did the TGI turn out when `COC(=O)C1=C(C(=O)OC)C2(C3C(SC)=CC(C)(C)CC3S1)N(Cc1ccccc1)CCN2Cc1ccccc1` (configuration not stated) was run?
A: > 100 µM

system: EKVX NSCLC; assay: growth of human tumour cells (NCI), 48 h

Q: `C[C@]12CC[C@H](OC3CCCCO3)CC1=CC[C@@H]1C2CC[C@]2(C)/C(=N/OCCC#N)CCC12` (some centres not stated) was tested. Which TGI did it give?
A: > 100 µM

Q: `NC(N)=NNC(=O)CCn1[nH]c(=O)c(Cl)c(Cl)c1=O` was tested. Which TGI did it give?
A: > 100 µM

Q: With `CC(C)OC(=O)c1cc(NC(=O)C(C)(C)C)c(F)cc1Cl` as the compound, how does the TGI read?
A: > 100 µM

Q: How did the TGI turn out when `COCOCCCCCO[Si](C)(C)C(C)(C)C` was run?
A: 46.8 µM

Q: Which TGI does the source give for `COC(=O)C1=C(C(=O)OC)C2(C3C(SC)=CC(C)(C)CC3S1)N(Cc1ccccc1)CCN2Cc1ccccc1` (configuration not stated) here?
A: > 100 µM

system: SF-268 CNS; assay: growth of human tumour cells (NCI), 48 h

Q: With `NC(N)=NNC(=O)CCn1[nH]c(=O)c(Cl)c(Cl)c1=O` as the compound, how does the TGI read?
A: > 100 µM

Q: For `CC(C)OC(=O)c1cc(NC(=O)C(C)(C)C)c(F)cc1Cl`, which TGI is on record?
A: > 100 µM

Q: For `COCOCCCCCO[Si](C)(C)C(C)(C)C`, which TGI is on record?
A: 27.9 µM

Q: Which TGI does the source give for `COC(=O)C1=C(C(=O)OC)C2(C3C(SC)=CC(C)(C)CC3S1)N(Cc1ccccc1)CCN2Cc1ccccc1` (configuration not stated) here?
A: > 100 µM

system: MALME-3M melanoma; assay: growth of human tumour cells (NCI), 48 h

Q: With `C[C@]12CC[C@H](OC3CCCCO3)CC1=CC[C@@H]1C2CC[C@]2(C)/C(=N/OCCC#N)CCC12` (some centres not stated) as the compound, how does the TGI read?
A: > 100 µM

Q: `NC(N)=NNC(=O)CCn1[nH]c(=O)c(Cl)c(Cl)c1=O` was tested. Which TGI did it give?
A: > 100 µM

Q: Which TGI does the source give for `CC(C)OC(=O)c1cc(NC(=O)C(C)(C)C)c(F)cc1Cl` here?
A: > 100 µM

Q: `COCOCCCCCO[Si](C)(C)C(C)(C)C` was tested. Which TGI did it give?
A: 47.9 µM

Q: How did the TGI turn out when `COC(=O)C1=C(C(=O)OC)C2(C3C(SC)=CC(C)(C)CC3S1)N(Cc1ccccc1)CCN2Cc1ccccc1` (configuration not stated) was run?
A: > 100 µM

system: OVCAR-8 ovarian; assay: growth of human tumour cells (NCI), 48 h

Q: With `C[C@]12CC[C@H](OC3CCCCO3)CC1=CC[C@@H]1C2CC[C@]2(C)/C(=N/OCCC#N)CCC12` (some centres not stated) as the compound, how does the TGI read?
A: > 100 µM

Q: How did the TGI turn out when `NC(N)=NNC(=O)CCn1[nH]c(=O)c(Cl)c(Cl)c1=O` was run?
A: > 100 µM

Q: For `CC(C)OC(=O)c1cc(NC(=O)C(C)(C)C)c(F)cc1Cl`, which TGI is on record?
A: > 100 µM

Q: Which TGI does the source give for `COCOCCCCCO[Si](C)(C)C(C)(C)C` here?
A: 41.2 µM

Q: `COC(=O)C1=C(C(=O)OC)C2(C3C(SC)=CC(C)(C)CC3S1)N(Cc1ccccc1)CCN2Cc1ccccc1` (configuration not stated) was tested. Which TGI did it give?
A: > 100 µM

system: SW-620 colon; assay: growth of human tumour cells (NCI), 48 h

Q: `C[C@]12CC[C@H](OC3CCCCO3)CC1=CC[C@@H]1C2CC[C@]2(C)/C(=N/OCCC#N)CCC12` (some centres not stated) was tested. Which TGI did it give?
A: > 100 µM

Q: `NC(N)=NNC(=O)CCn1[nH]c(=O)c(Cl)c(Cl)c1=O` was tested. Which TGI did it give?
A: > 100 µM

Q: For `CC(C)OC(=O)c1cc(NC(=O)C(C)(C)C)c(F)cc1Cl`, which TGI is on record?
A: > 100 µM

Q: Which TGI does the source give for `COCOCCCCCO[Si](C)(C)C(C)(C)C` here?
A: 33.5 µM

Q: With `COC(=O)C1=C(C(=O)OC)C2(C3C(SC)=CC(C)(C)CC3S1)N(Cc1ccccc1)CCN2Cc1ccccc1` (configuration not stated) as the compound, how does the TGI read?
A: > 100 µM
